From the supplement of paper PMC11061612

What was measured:
A172 (Glioblastoma) = assay: Bliss excess, mean over the matrix (fraction); higher = more synergy
In short: (§1)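 After 24 hours at 37°C and 5% CO2 in 1536-well plates, cells in DMEM/F12 or RPMI plus 10% FBS received two-drug dose matrices for 72 hours. Viability came from CellTiter-Glo 2.0 luminescence and was scaled as inhibition, anchored at 0 by vehicle wells and at 1 by blank wells. Combination Emax is taken as the second-highest inhibition in the matrix, and Bliss excess as the observed combination effect less EA + EB − EA·EB, with EA and EB the single-agent effects.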

[1] = system: BICR78 (Oral Cavity Carcinoma); assay: as above
In short: as §1

Saos-2 (Osteosarcoma) [2] = assay: as above
In short: as §1

[3] = system: HCC-827 (Lung Adenocarcinoma); assay: as above
In short: as §1

[4] = system: WSU-DLCL2 (B-Cell Non-Hodgkin's Lymphoma); assay: as above
In short: as §1

[5] = system: D-283MED (Other Solid Carcinomas); assay: as above
In short: as §1

HCC38 (Breast Carcinoma) = assay: combination Emax (second highest fraction inhibited in the dose matrix, 72 h); higher = more inhibition; extreme values may be limits of the assay
In short: as §1

MSTO-211H (Mesothelioma) = assay: as above
In short: as §1

[6] = system: CAL-39 (Other Solid Carcinomas); assay: as above
In short: as §1

Saos-2 (Osteosarcoma) [7] = assay: as above
In short: as §1

[8] = system: SNU-61 (Colorectal Carcinoma); assay: as above
In short: as §1

[9] = system: SKN-3 (Head and Neck Carcinoma); assay: as above
In short: as §1

[10] = system: RCC10RGB (Kidney Carcinoma); assay: as above
In short: as §1

[11] = system: SLVL (B-Cell Non-Hodgkin's Lymphoma); assay: as above
In short: as §1

[12] = system: P31-FUJ (Acute Myeloid Leukemia); assay: as above
In short: as §1

[13] = system: YT (Other Blood Carcinomas); assay: as above
In short: as §1

[14] = system: ETK-1 (Biliary Tract Carcinoma); assay: as above
In short: as §1

[15] = system: HOP-92 (Non-Small Cell Lung Carcinoma); assay: as above
In short: as §1

[16] = system: MES-SA (Other Solid Carcinomas); assay: as above
In short: as §1
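Wherever Bliss excess, mean over the matrix is given: after 72 h of two-drug dosing.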

SMILES | Bliss excess (A172 (Glioblastoma)) | Bliss excess [1] | Bliss excess (Saos-2 (Osteosarcoma) [2]) | Bliss excess [3] | Bliss excess [4] | Bliss excess [5] | combination Emax (HCC38 (Breast Carcinoma)) | combination Emax (MSTO-211H (Mesothelioma)) | combination Emax [6] | combination Emax (Saos-2 (Osteosarcoma) [7]) | combination Emax [8] | combination Emax [9] | combination Emax [10] | combination Emax [11] | combination Emax [12] | combination Emax [13] | combination Emax [14] | combination Emax [15] | combination Emax [16]
C[C@@H](c1ccc2nccn2c1)n1nnc2ncc(-c3cnn(C)c3)nc21 [Savolitinib] + CC1(C)CCC(CN2CCN(c3ccc(C(=O)NS(=O)(=O)c4ccc(NCC5CCOCC5)c([N+](=O)[O-])c4)c(Oc4cnc5[nH]ccc5c4)c3)CC2)=C(c2ccc(Cl)cc2)C1 [Venetoclax] (first compound max 1 µM, 7x7, partner max 1 µM) | -0.0498 | -0.0779 | -0.0259 | -0.0293 | 0.113 | -0.0144 | 0.158 | 0.114 | 0.157 | 0.121 | 0.143 | 0.148 | 0.195 | 0.406 | 0.372 | 0.336 | 0.0864 | 0.201 | 0.0576
NC1(C(=O)N[C@@H](CCO)c2ccc(Cl)cc2)CCN(c2ncnc3[nH]ccc23)CC1 [Capivasertib] + CC(=O)c1c(C)c2cnc(Nc3ccc(N4CCNCC4)cn3)nc2n(C2CCCC2)c1=O [Palbociclib] (first compound max 10 µM, 7x7, partner max 10 µM) | -0.0183 | -0.0093 | 0.0005 | -0.034 | 0.0205 | -0.0227 | 0.209 | 0.261 | 0.672 | 0.407 | 0.168 | 0.474 | 0.54 | 0.56 | 0.571 | 0.68 | 0.419 | 0.466 | 0.607
COc1nnc2ccc(N3CCC(c4ccc(OCCN5CCN(C)C(=O)[C@H]5C)cc4)CC3)nn12 [AZD5153] + C=CCn1c(=O)c2cnc(Nc3ccc(N4CCN(C)CC4)cc3)nc2n1-c1cccc(C(C)(C)O)n1 [AZD1775] (first compound max 1 µM, partner max 1 µM) | -0.0521 | -0.0302 | -0.0011 | 0.0237 | -0.0085 | -0.034 | 0.433 | 0.255 | 0.788 | 0.854 | 0.601 | 0.634 | 0.686 | 0.738 | 0.97 | 0.917 | 0.576 | 0.406 | 0.685
Cn1cnc2c(F)c(Nc3ccc(Br)cc3Cl)c(C(=O)NOCCO)cc21 [Selumetinib] + CCN(CCO)CCCOc1ccc2c(Nc3cc(CC(=O)Nc4cccc(F)c4)[nH]n3)ncnc2c1 [AZD2811] (first compound max 10 µM, 7x7, partner max 1 µM) | -0.0731 | 0.0275 | 0.0334 | -0.0711 | -0.0019 | -0.0022 | 0.133 | 0.318 | 0.72 | 0.472 | 0.486 | 0.27 | 0.505 | 0.639 | 0.951 | 0.229 | 0.158 | 0.495 | 0.405
COc1nnc2ccc(N3CCC(c4ccc(OCCN5CCN(C)C(=O)[C@H]5C)cc4)CC3)nn12 [AZD5153] + CC1(C)CCC(CN2CCN(c3ccc(C(=O)NS(=O)(=O)c4ccc(NCC5CCOCC5)c([N+](=O)[O-])c4)c(Oc4cnc5[nH]ccc5c4)c3)CC2)=C(c2ccc(Cl)cc2)C1 [Venetoclax] (first compound max 1 µM, 7x7, partner max 1 µM) | -0.0363 | -0.0468 | -0.0304 | -0.0498 | 0.0805 | -0.0343 | 0.458 | 0.271 | 0.631 | 0.535 | 0.389 | 0.467 | 0.539 | 0.802 | 0.974 | 0.714 | 0.445 | 0.362 | 0.386
COc1nnc2ccc(N3CCC(c4ccc(OCCN5CCN(C)C(=O)[C@H]5C)cc4)CC3)nn12 [AZD5153] + Cc1c2c(nn1C)CSCc1cc(n(C)n1)CSc1cc(c3ccccc3c1)OCCCc1c(C(=O)O)n(C)c3c-2c(Cl)ccc13 [AZD5991] (first compound max 1 µM, 7x7, partner max 1 µM) | -0.0698 | -0.027 | 0.0143 | -0.0225 | 0.0182 | -0.0409 | 0.479 | 0.293 | 0.905 | 0.835 | 0.452 | 0.6 | 0.531 | 0.715 | 0.995 | 1 | 0.513 | 0.386 | 0.593
COc1nnc2ccc(N3CCC(c4ccc(OCCN5CCN(C)C(=O)[C@H]5C)cc4)CC3)nn12 [AZD5153] + Cn1cnc2c(F)c(Nc3ccc(Br)cc3Cl)c(C(=O)NOCCO)cc21 [Selumetinib] (first compound max 1 µM, 7x7, partner max 10 µM) | -0.0304 | -0.0454 | -0.0452 | -0.0543 | -0.0365 | -0.0211 | 0.342 | 0.41 | 0.827 | 0.516 | 0.69 | 0.531 | 0.574 | 0.738 | 0.985 | 0.693 | 0.463 | 0.556 | 0.478
NC1(C(=O)N[C@@H](CCO)c2ccc(Cl)cc2)CCN(c2ncnc3[nH]ccc23)CC1 [Capivasertib] + Cn1cnc2c(F)c(Nc3ccc(Br)cc3Cl)c(C(=O)NOCCO)cc21 [Selumetinib] (first compound max 10 µM, 7x7, partner max 10 µM) | -0.008 | -0.0016 | 0.0087 | 0.04 | -0.0006 | 0.0855 | 0.29 | 0.379 | 0.762 | 0.46 | 0.46 | 0.426 | 0.483 | 0.806 | 0.931 | 0.446 | 0.48 | 0.685 | 0.496
Cn1cnc2c(F)c(Nc3ccc(Br)cc3Cl)c(C(=O)NOCCO)cc21 [Selumetinib] + CC(C)n1c(=O)n(C)c2cnc3cc(F)c(-c4ccc(OCCCN5CCCCC5)nc4)cc3c21 [AZD1390] (first compound max 10 µM, 7x7, partner max 0.3 µM) | -0.0389 | 0.0116 | -0.0577 | -0.0306 | -0.003 | -0.0123 | 0.116 | 0.162 | 0.643 | 0.153 | 0.389 | 0.228 | 0.437 | 0.448 | 0.555 | 0.16 | 0.122 | 0.402 | 0.115
C[C@@H](c1ccc2nccn2c1)n1nnc2ncc(-c3cnn(C)c3)nc21 [Savolitinib] + Cc1c2c(nn1C)CSCc1cc(n(C)n1)CSc1cc(c3ccccc3c1)OCCCc1c(C(=O)O)n(C)c3c-2c(Cl)ccc13 [AZD5991] (first compound max 1 µM, 7x7, partner max 1 µM) | -0.0747 | -0.0214 | -0.0405 | -0.008 | 0.0276 | 0.0649 | 0.207 | 0.123 | 0.264 | 0.229 | 0.151 | 0.216 | 0.289 | 0.374 | 0.94 | 1 | 0.141 | 0.197 | 0.191
Cn1cnc2c(F)c(Nc3ccc(Br)cc3Cl)c(C(=O)NOCCO)cc21 [Selumetinib] + C=CCn1c(=O)c2cnc(Nc3ccc(N4CCN(C)CC4)cc3)nc2n1-c1cccc(C(C)(C)O)n1 [AZD1775] (first compound max 10 µM, partner max 1 µM) | -0.126 | -0.0678 | -0.0072 | -0.026 | -0.0064 | -0.0295 | 0.377 | 0.442 | 0.726 | 0.551 | 0.527 | 0.477 | 0.591 | 0.797 | 0.935 | 0.945 | 0.384 | 0.503 | 0.731
COc1nnc2ccc(N3CCC(c4ccc(OCCN5CCN(C)C(=O)[C@H]5C)cc4)CC3)nn12 [AZD5153] + CCN(CCO)CCCOc1ccc2c(Nc3cc(CC(=O)Nc4cccc(F)c4)[nH]n3)ncnc2c1 [AZD2811] (first compound max 1 µM, 7x7, partner max 1 µM) | -0.0466 | -0.0537 | -0.0809 | -0.0513 | -0.019 | 0.001 | 0.426 | 0.26 | 0.691 | 0.601 | 0.429 | 0.462 | 0.565 | 0.696 | 0.982 | 0.666 | 0.463 | 0.402 | 0.587
CC(=O)c1c(C)c2cnc(Nc3ccc(N4CCNCC4)cn3)nc2n(C2CCCC2)c1=O [Palbociclib] + CC1(C)CCC(CN2CCN(c3ccc(C(=O)NS(=O)(=O)c4ccc(NCC5CCOCC5)c([N+](=O)[O-])c4)c(Oc4cnc5[nH]ccc5c4)c3)CC2)=C(c2ccc(Cl)cc2)C1 [Venetoclax] (first compound max 10 µM, 7x7, partner max 1 µM) | -0.003 | -0.0611 | -0.0417 | -0.0379 | 0.0277 | 0.0132 | 0.0554 | 0.0513 | 0.255 | 0.197 | 0.152 | 0 | 0.476 | 0.325 | 0.364 | 0.504 | 0.281 | 0.145 | 0.361
NC1(C(=O)N[C@@H](CCO)c2ccc(Cl)cc2)CCN(c2ncnc3[nH]ccc23)CC1 [Capivasertib] + CCN(CCO)CCCOc1ccc2c(Nc3cc(CC(=O)Nc4cccc(F)c4)[nH]n3)ncnc2c1 [AZD2811] (first compound max 10 µM, 7x7, partner max 1 µM) | -0.0079 | -0.0092 | -0.0757 | -0.0428 | 0.0415 | 0.0666 | 0.359 | 0.379 | 0.55 | 0.586 | 0.242 | 0.23 | 0.292 | 0.667 | 0.952 | 0.456 | 0.381 | 0.458 | 0.756
